The source of these data is patent publication US10836742B2, “N-substituted bicyclic lactams, their preparation and their use as pharmaceuticals” (NEOMED Institute, priority 2015, dated 2020).

Each structure is given as a SMILES string. pIC50: −log10 of the molar value.

The target of one assay is BRD4(BD1) (Homo sapiens (Human), UniProt O60885). The experiment in a line: In vitro bromodomain inhibition assay (AlphaLISA, H4-tetraacetyl peptide). The note with it: His-tagged BRD4 BD1 200 nM, biotinylated H4-tetraacetyl peptide 200 nM. Format: binding. On the procedure:
a) In vitro Bromodomain Inhibition Assay
To measure activity of bromodomain inhibitors, a His-epitope tagged BRD4 BD149-170 is purchased from BPS Bioscience. BRD4 binding and inhibition is assessed by monitoring the engagement of biotinylated H4-tetraacetyl peptide (H4K5/8/12/16; AnaSpec #64989-025) with the target using the AlphaLISA technology (Perkin-Elmer). Specifically, in a 384 well OptiPlate, BRD4(BD1) (200 nM final) is pre-incubated with either DMSO (final 1.0% DMSO) or a compound dilution series in DMSO. All reagents are diluted in assay buffer containing 50 mM HEPES (pH 7.4), 100 mM NaCl, 0.1% (w/v) BSA, and 0.05% (w/v) CHAPS. After a 30 minute incubation at room temperature, H4 peptide is added (200 nM final) and the reaction is incubated an additional 30 minutes at room temperature. Alpha streptavidin donor beads and AlphaLISA nickel chelate acceptor beads are then added to a final concentration of 10 μg/mL each. After one hour, equilibration plates are read on an Envision instrument and IC50s calculated using a four parameter non-linear curve fit (results are shown in Table 2).

Assay [1] has as its system human C-Myc gene transcription in MV-4-11 cells. The assay can be described thus: Transcription of human C-Myc in human leukemic MV-4-11 cells (QuantiGene 2.0). Format: cell-based. Conditions: inhibition of C-Myc mRNA transcription, 4 hours treatment. On the procedure:
b) Transcription of Human C-Myc in Human Leukemic MV-4-11 Cells:
The effect of compounds on transcription of human C-Myc gene is monitored in human B-myelomonocytic leukemia cell line MV-4-11 (from American Type Culture Collection (ATCC), Manassas, Va., USA) using QuantiGene 2.0 assay kit (Affymetrix, Santa Clara, Calif., USA).
Typically, 8,000 MV-4-11 cells are plated in sterile 96-well plates (Costar #3598 from Fisher Scientific Canada, Ottawa, Ontario, Canada) in Iscove's medium supplemented with 10% fetal bovine serum, glutamine (2 mM), and penicillin (100 I.U.) and streptomycin (100 μg/mL) (all from Wisent Inc., St. Bruno, Quebec, Canada). Compounds are dissolved in DMSO at 30 mM. A series of 1:3 dilutions are first made in DMSO, and further 1:100 dilutions are made in serum-containing cell culture media. The final concentration of DMSO is 0.1% in cell culture media. After cells are treated with various concentrations of test compound for 4 hours, cells are lysed using Quantigene 2.0 sample processing kit (#QS0100). C-Myc mRNA is detected using a QuantiGene 2.0 assay kit (#QS0009) with gene-specific probe to human C-Myc (#SA-50182) following the manufacturer's recommendations. Luminescene signals are read on Flexstation II microplate reader (Molecular Devices, Sunnyvale, Calif., USA).

One may read the pIC50 as the negative decadic logarithm of the IC50, by convention in mol/L. Lower therefore signals a high IC50. In the case of `Cc1cc(-c2ccc3c(c2)N(C(C)c2ccccc2)C(=O)CC3)cn(C)c1=O` (single isomer, unassigned) [Compound 12, 7-(1,5-dimethyl-6-oxo-3-pyridyl)-1-(1-phenylethyl)-3,4-dihydroquinolin-2-one], the pIC50 at BRD4(BD1) was 6.04; in assay [1], 6.05.
For `Cc1cc(-c2ccc3c(c2)N(C(C)c2ccccc2)C(=O)CC3)cn(C)c1=O` (single isomer, unassigned) [Compound 13, 7-(1,5-dimethyl-6-oxo-3-pyridyl)-1-(1-phenylethyl)-3,4-dihydroquinolin-2-one] the same measures were 6.49 and 6.80.
Turning to `Cc1cc(-c2ccc3c(c2)N(CC2CCCCO2)C(=O)CC3)cn(C)c1=O` (single isomer, unassigned) [Compound 14, 7-(1,5-dimethyl-6-oxo-3-pyridyl)-1-(tetrahydropyran-2-ylmethyl)-3,4-dihydroquinolin-2-one], the negative logarithm of the IC50 (pIC50) against BRD4(BD1) was 5.44; in assay [1] (Homo sapiens, MV4-11, 4 h), 6.23.
On to `Cc1cc(-c2ccc3c(c2)N(CC2CCCCO2)C(=O)CC3)cn(C)c1=O` (single isomer, unassigned) [Compound 15, 7-(1,5-dimethyl-6-oxo-3-pyridyl)-1-(tetrahydropyran-2-ylmethyl)-3,4-dihydroquinolin-2-one], for which the pIC50 at BRD4(BD1) was 5.82; in assay [1], 6.22.
Compound `COc1cc2c(cc1-c1cc(C)c(=O)n(C)c1)CCC(=O)N2C(C)c1ccccc1` (stereo not shown) [Compound 1, 6-(1,5-dimethyl-6-oxo-3-pyridyl)-7-methoxy-1-(1-phenylethyl)-3,4-dihydroquinolin-2-one] showed a negative-log IC50 (pIC50) in assay [1] (Homo sapiens, MV4-11, 4 h) of 6.26.
In assay [1], `COc1cc2c(cc1-c1cc(C)c(=O)n(C)c1)CCC(=O)N2C(C)c1ccccc1` (stereo not shown) [Compound 2, 6-(1,5-dimethyl-6-oxo-3-pyridyl)-7-methoxy-1-(1-phenylethyl)-3,4-dihydroquinolin-2-one] showed a pIC50 of 6.08.
As for `COc1cc2c(cc1-c1cc(C)c(=O)n(C)c1)CCC(=O)N2C(C)c1ccccn1` (stereo not shown) [Compound 3, 6-(1,5-dimethyl-6-oxo-3-pyridyl)-7-methoxy-1-[1-(2-pyridyl)ethyl]-3,4-dihydroquinolin-2-one], in assay [1] (Homo sapiens, MV4-11, 4 h), the pIC50 is 6.05.
As for `COc1cc2c(cc1-c1cc(C)c(=O)n(C)c1)CCC(=O)N2C(C)c1ccccn1` (stereo not shown) [Compound 4, 6-(1,5-dimethyl-6-oxo-3-pyridyl)-7-methoxy-1-[1-(2-pyridyl)ethyl]-3,4-dihydroquinolin-2-one], the pIC50 in assay [1] is 6.08.
`Cc1cc(-c2ccc3c(c2)CCC(=O)N3Cc2ccccc2)cn(C)c1=O` [Compound 5, 1-benzyl-6-(1,5-dimethyl-6-oxo-3-pyridyl)-3,4-dihydroquinolin-2-one]: the pIC50 in assay [1] (Homo sapiens, MV4-11, 4 h) was 6.08.
For `COc1cc(-c2cc(C)c(=O)n(C)c2)cc2c1N(Cc1ccccc1)C(=O)CC2` [Compound 6, 1-benzyl-6-(1,5-dimethyl-6-oxo-1,6-dihydropyridin-3-yl)-8-methoxy-3,4-dihydroquinolin-2(1H)-one], the pIC50 at BRD4(BD1) is 5.59; in assay [1] (Homo sapiens, MV4-11, 4 h) it was 6.11.
Consider `Cc1cc(-c2ccc3c(c2)N(Cc2ccccc2)C(=O)CC3)cn(C)c1=O` [Compound 7, 1-benzyl-7-(1,5-dimethyl-6-oxo-3-pyridyl)-3,4-dihydroquinolin-2-one], for which the pIC50 is 6.13 against BRD4(BD1) and 6.59 in assay [1] (Homo sapiens, MV4-11, 4 h).
In the case of `Cc1cc(-c2ccc3c(c2)N(CCOC(F)(F)F)C(=O)CC3)cn(C)c1=O` [Compound 8, 7-(1,5-dimethyl-6-oxo-3-pyridyl)-1-[2-(trifluoromethoxy)ethyl]-3,4-dihydroquinolin-2-one], the pIC50 was 6.03 against BRD4(BD1) and 6.09 in assay [1] (Homo sapiens, MV4-11, 4 h).
For `Cc1cc(-c2ccc3c(c2)N(Cc2ccc(F)cc2)C(=O)CC3)cn(C)c1=O` [Compound 9, 7-(1,5-dimethyl-6-oxo-3-pyridyl)-1-[(4-fluorophenyl)methyl]-3,4-dihydro-quinolin-2-one], the negative logarithm of the IC50 (pIC50) was 6.15 against BRD4(BD1) and 6.24 in assay [1] (Homo sapiens, MV4-11, 4 h).
On to `Cc1cc(-c2ccc3c(c2)N(Cc2ccccn2)C(=O)CC3)cn(C)c1=O` [Compound 10, 7-(1,5-dimethyl-6-oxo-3-pyridyl)-1-(2-pyridylmethyl)-3,4-dihydroquinolin-2-one], for which the negative-log IC50 (pIC50) against BRD4(BD1) was 6.38; in assay [1] (Homo sapiens, MV4-11, 4 h), 6.27.
For `Cc1cc(-c2ccc3c(c2)N(CC2CC(F)(F)C2)C(=O)CC3)cn(C)c1=O` [Compound 11, 1-[(3,3-difluorocyclobutyl)methyl]-7-(1,5-dimethyl-6-oxo-3-pyridyl)-3,4-di hydroquinolin-2-one], the pIC50 at BRD4(BD1) is 6.07; in assay [1] (Homo sapiens, MV4-11, 4 h) it was 6.06.
The matching figures for `Cc1cc(-c2ccc3c(c2)OCC(=O)N3Cc2ccccc2)cn(C)c1=O` [Compound 16, 4-benzyl-7-(1,5-dimethyl-6-oxo-3-pyridyl)-1,4-benzoxazin-3-one]: 5.80 and 6.22.
For `Cc1cc(-c2ccc3c(c2)N(Cc2ccccc2)C(=O)CO3)cn(C)c1=O` [Compound 17, 4-benzyl-6-(1,5-dimethyl-6-oxo-3-pyridyl)-1,4-benzoxazin-3-one] the same measures were 6.34 and 7.02.
Take `Cc1cc(-c2ccc3c(c2)N(Cc2ccccn2)C(=O)CO3)cn(C)c1=O` [Compound 18, 6-(1,5-dimethyl-6-oxo-3-pyridyl)-4-(2-pyridylmethyl)-1,4-benzoxazin-3-one]: the pIC50 was 6.24 on BRD4(BD1) and 6.07 in assay [1] (Homo sapiens, MV4-11, 4 h).
The matching figures for `Cc1cc(-c2ccc3c(c2)N(CC2CC(F)(F)C2)C(=O)CO3)cn(C)c1=O` [Compound 19, 4-[(3,3-difluorocyclobutyl)methyl]-6-(1,5-dimethyl-6-oxo-3-pyridyl)-1,4-benzoxazin-3-one]: 6.09 and 6.12.
As for `Cc1cc(-c2ccc3c(c2)N(CCOC(F)(F)F)C(=O)CO3)cn(C)c1=O` [Compound 20, 6-(1,5-dimethyl-6-oxo-3-pyridyl)-4-[2-(trifluoromethoxy)ethyl]-1,4-benzoxazin-3-one], the pIC50 against BRD4(BD1) is 6.06; in assay [1] (Homo sapiens, MV4-11, 4 h), 6.30.
Consider `Cc1cc(-c2cc(C)c(=O)n(C)c2)cc2c1N(Cc1ccccc1)C(=O)CC2` [Compound 21, 1-Benzyl-6-(1,5-dimethyl-6-oxo-1,6-dihydropyridin-3-yl)-8-methyl-3,4-dihydroquinolin-2(1H)-one], for which, in assay [1] (Homo sapiens, MV4-11, 4 h), the pIC50 is 6.09.
On the same count and under the same terms, to `Cc1cc(-c2cc(Cl)c3c(c2)CCC(=O)N3Cc2ccccc2)cn(C)c1=O` [Compound 22, 1-benzyl-8-chloro-6-(1,5-dimethyl-6-oxo-1,6-dihydropyridin-3-yl)-3,4-dihydroquinolin-2(1H)-one] belongs 6.08.
